# US7786083B2, “Metastin derivatives and use thereof” (Takeda Pharmaceutical Company Limited, priority 2006, dated 2010)
# *1 amine or outer side, *2 acyl side, *3 side chain or, on linkers, in order; H or OH if unused. Where a SMILES comes first, the peptide text is derived from it. [ ]: non-standard residue; d: D form. Glyψ(E-CHCH)Leu = CC(C)C[C@H](/C=C/CN[*:1])C(=O)[*:2]; Glyψ(CH2S)Leu = CC(C)C[C@H](SCCN[*:1])C(=O)[*:2]; X3 = O=C(CC[C@@H](O)[C@H](Cc1ccccc1)N[*:1])[*:2]; X7 = O=C(C/C=C/[C@H](Cc1ccccc1)N[*:1])[*:2]; X9 = O=C(CCC[C@H](Cc1ccccc1)N[*:1])[*:2]; Phe(3-Me) = Cc1cccc(C[C@H](N)C(=O)O)c1; X1 = CC(C)C[C@H](CCCN[*:1])C(=O)[*:2]; Arg(Me) = CNC(=N)NCCC[C@H](N)C(=O)O; Dap(CONH2) = NC(=O)NC[C@H](N)C(=O)O; Ala(cPr) = N[C@@H](CC1CC1)C(=O)O; Hyp = O=C(O)[C@@H]1C[C@@H](O)CN1; 2Pal = N[C@@H](Cc1ccccn1)C(=O)O; 3Pal = N[C@@H](Cc1cccnc1)C(=O)O; Cha = N[C@@H](CC1CCCCC1)C(=O)O; Aib = CC(C)(N)C(=O)O
# Test system: metastin receptors
# Assay: Measurement of agonist activity by assaying changes in intracellular calcium ion level (FLIPR, Fluo-4 NW)
# Type: cell-based, human
# Settings: specific activity of the EC50 of a test compound based on the EC50 of Metastin (45-54), metastin receptor expression CHO cells
# Method: 1) Preparation of Human Metastin and Rat Metastin Stable Expression Cell Lines
# Human metastin and rat metastin stable expression cell lines were obtained by transfecting the expression plasmid for animal cells into CHO/dhfr^− cells using CellPhect Transfection Kit (manufactured by GE Healthcare). First, 240 μL of Buffer A (attached to CellPhect Transfection Kit) was added to 9.6 μg of plasmid DNA dissolved in 240 μL of distilled water followed by stirring. After the mixture was settled for 10 minutes, 480 μL of Buffer B (attached to CellPhect Transfection Kit) was added to the mixture, which was vigorously stirred to form liposomes containing the DNA. Then, 4×10^5 CHO/dhfr^− cells (obtained from ATCC) were inoculated on a 60 mm Petri dish. After culturing the cells in Ham's F-12 medium (manufactured by Nissui Seiyaku Co., Ltd.) supplemented with 10% fetal bovine serum (manufactured by BIO […], Inc.) at 37° C. for 2 days in 5% carbon dioxide gas, […] of the liposomes were dropwise added to the cells on the Petri dish. After culturing the cells in a CO2 incubator (5% CO2, 37° C.) for 6 hours, the cells were washed twice with serum-free Ham's F-12 medium and 3 mL of 15% glycerol was added to the cells on the Petri dish followed by treatment for 2 minutes. The cells were again washed twice with serum-free Ham's F-12 medium followed by incubation in Ham's F-12 medium supplemented with 10% fetal bovine serum in a CO2 incubator (5% CO2, 37° C.) for 15 hours. The cells were dispersed by trypsin treatment to recover from the Petri dish. The recovered cells were inoculated on a 6-well plate in 1.25×10^4 cells each/well and incubation was initiated in a CO2 incubator (5% CO2, 37° C.) in Dulbecco's modified Eagle medium (DMEM, manufactured by Nissui Seiyaku) containing 10% dialyzed fetal bovine serum (manufactured by JRH BIOSCIENCES, Inc.). The plasmid-transfected CHO transformants grew in the medium but the non-transfected cells gradually died, accordingly the medium was exchanged on Days 1 and 2 after the initiation of incubation to remove the dead cells. Approximately 20 colonies of the CHO transformants that kept growing on Days 8 to 10 after the incubation were isolated. From the cells in these colonies, cells showing high reactivity with the ligand peptide metastin (hereinafter merely referred to as h175 KB19 and h175 KB29 strains) were selected to provide for the following experiment.
# Human metastin expression CHO cell line (h175 KB19 strain is described in a separate section) and rat metastin expression CHO cell line (h175 KB29 strain is described in a separate section) were seeded in a 96-well plate (type 3904, manufactured by Corning) at 3×10^4 cells/well, followed by incubation in a CO2 incubator (5% CO2, 37° C.) for 24 hours. For the medium, MEMα medium (nucleic acid-free, manufactured by Nikken Bio Medical Laboratory) supplemented with dialyzed 10% fetal bovine serum (manufactured by Thermo, MultiSer) was used.
# 3) Loading with Fluo-4 NW in Cells
# As an assay buffer, 1× Hanks' balanced salt solution (HBSS, manufactured by GIBCO) supplemented with 0.1% BSA, 20 mM HEPES (pH 7.4, manufactured by GIBCO) and 1 mM Probenecid (manufactured by Molecular Probes) was prepared. The medium in the wells of the cell-seeded plate was removed and 100 μL each of the assay buffer (kept warm at 37° C.) was added to each well. After 10 mL of the assay buffer (the volume for assaying two plates) was charged in one Fluo-4NW dye mix (Component A, Fluo-4 NW calcium assay kit (starter pack), manufactured by Molecular Probes) bottle, the mixture was gently stirred to prepare the Fluo-4 NW loading solution. This loading solution was charged in each well by 50 μl each and reacted in a CO2 incubator (5% CO2, 37° C.) for 30 minutes for loading with Fluo-4 NW into the cells. Subsequently, the cells were settled at room temperature (25° C.) for 15 minutes and then used for assay.
# 4) Measurement of Agonist Activity […]
row,Compound,Specific Activity
1,"CNC(=N)NCCC[C@H](NC(=O)[C@@H](/C=C/CNC(=O)[C@H](Cc1ccccc1)NC(=O)[C@@H](NC(=O)[C@H](CC(N)=O)NC(=O)[C@@H]1C[C@@H](O)CN1C(=O)[C@@H](Cc1ccc(O)cc1)NC(C)=O)[C@@H](C)O)CC(C)C)C(=O)N[C@@H](Cc1c[nH]c2ccccc12)C(N)=O [Compound No. 892, des(1)-Ac-[D-Tyr2,Hyp3,Thr5,Gly7Ψ((E)CH═CH)Leu8,Arg[(Me)9,Trp10]MS10] (Ac-[dY][Hyp]NTF[Glyψ(E-CHCH)Leu][Arg(Me)]W-NH2)",0.6
2,"des(1)-Ac-[D-Tyr2,Hyp3,Thr5,Gly7Ψ(CH2NH)Leu8,Arg(Me)9,Trp10]MS10 (Ac-[dY][Hyp]NTFGL[Arg(Me)]W-NH2; also: -CONH- between Gly and Leu replaced by -CH2NH-) [Compound No. 854]",2.9
3,"CNC(=N)NCCC[C@H](NC(=O)[C@@H](/C=C/CNC(=O)[C@H](Cc1ccccc1)NC(=O)[C@@H](NC(=O)[C@H](CNC(N)=O)NC(=O)[C@@H]1C[C@@H](O)CN1C(=O)[C@@H](Cc1ccc(O)cc1)NC(C)=O)[C@@H](C)O)CC(C)C)C(=O)N[C@@H](Cc1c[nH]c2ccccc12)C(N)=O [Compound No. 906, des(1)-Ac-[D-Tyr2,Hyp3,Alb4,Gly7Ψ((E)CH═CH)Leu8,Arg(Me)9,Trp10]MS10] (Ac-[dY][Hyp][Dap(CONH2)]TF[Glyψ(E-CHCH)Leu][Arg(Me)]W-NH2)",0.6
4,"CNC(=N)NCCC[C@H](NC(=O)[C@H](CC(C)C)NC(=O)CC[C@@H](O)[C@H](Cc1ccccc1)NC(=O)[C@@H](NC(=O)[C@H](CC(N)=O)NC(=O)[C@@H]1C[C@@H](O)CN1C(=O)[C@@H](Cc1ccc(O)cc1)NC(C)=O)[C@@H](C)O)C(=O)N[C@@H](Cc1c[nH]c2ccccc12)C(N)=O [Compound No. 867, des(1)-Ac-[D-Tyr2,Hyp3,Thr5,Phe6Ψ((R)CHOH—CH2)Gly7,Arg(Me)9,Trp10]MS10] (Ac-[dY][Hyp]NT[X3]L[Arg(Me)]W-NH2)",0.8
5,"CC(=O)N[C@H](Cc1ccc(O)cc1)C(=O)N1C[C@H](O)C[C@H]1C(=O)N[C@@H](CNC(N)=O)C(=O)N[C@H](C(=O)N[C@@H](CC1CCCCC1)C(=O)NCCC[C@@H](CC(C)C)C(=O)N[C@@H](CCCNC(=N)N)C(=O)N[C@@H](Cc1c[nH]c2ccccc12)C(N)=O)[C@@H](C)O [Compound No. 952, des(1)-Ac-[D-Tyr2,Hyp3,Alb4,Thr5,Cha6,Gly7Ψ(CH2CH2)Leu8,Trp10]MS10] (Ac-[dY][Hyp][Dap(CONH2)]T[Cha][X1]RW-NH2)",1.3
6,"CNC(=N)NCCC[C@H](NC(=O)[C@H](CC(C)C)NC(=O)CNC(=O)[C@H](Cc1cccc(C)c1)NC(=O)[C@@H](NC(=O)[C@H](CC(N)=O)NC(=O)[C@@H]1C[C@@H](O)CN1C(=O)[C@@H](Cc1ccc(O)cc1)NC(C)=O)[C@@H](C)O)C(=O)N[C@@H](Cc1c[nH]c2ccccc12)C(N)=O [Compound No. 873, des(1)-Ac-[D-Tyr2,Hyp3,Thr5,Phe(3Me)6,Arg(Me)9,Trp10]MS10] (Ac-[dY][Hyp]NT[Phe(3-Me)]GL[Arg(Me)]W-NH2)",0.8
7,"CNC(=N)NCCC[C@H](NC(=O)[C@H](CC(C)C)SCCNC(=O)[C@H](Cc1ccccc1)NC(=O)[C@@H](NC(=O)[C@H](CC(N)=O)NC(=O)[C@@H]1C[C@@H](O)CN1C(=O)[C@@H](Cc1ccc(O)cc1)NC(C)=O)[C@@H](C)O)C(=O)N[C@@H](Cc1c[nH]c2ccccc12)C(N)=O [Compound No. 929, des(1)-Ac-[D-Tyr2,Hyp3,Thr5,Gly7Ψ(CH2S)Leu8,Arg(Me)9,Trp10]MS10] (Ac-[dY][Hyp]NTF[Glyψ(CH2S)Leu][Arg(Me)]W-NH2)",1.2

# Now from value to compound:
row,Specific Activity,Compound
1,0.5,"CNC(=N)NCCC[C@H](NC(=O)[C@H](CC1CC1)NC(=O)CNC(=O)[C@H](CC1CCCCC1)NC(=O)[C@H](CO)NC(=O)[C@H](CNC(N)=O)NC(=O)[C@@H]1C[C@@H](O)CN1C(=O)[C@@H](Cc1ccc(O)cc1)NC(C)=O)C(=O)N[C@@H](Cc1c[nH]c2ccccc12)C(N)=O [Compound No. 948, des(1)-Ac-[D-Tyr2,Hyp3,Alb4,Ser5,Cha6,Ala(cPr)8,Arg(Me)9,Trp10]MS10] (Ac-[dY][Hyp][Dap(CONH2)]S[Cha]G[Ala(cPr)][Arg(Me)]W-NH2)"
2,1.3,"CNC(=N)NCCC[C@H](NC(=O)[C@H](CC(C)C)NC(=O)CCC[C@H](Cc1ccccc1)NC(=O)[C@@H](NC(=O)[C@H](CC(N)=O)NC(=O)[C@@H]1C[C@@H](O)CN1C(=O)[C@@H](Cc1ccc(O)cc1)NC(C)=O)[C@@H](C)O)C(=O)N[C@@H](Cc1c[nH]c2ccccc12)C(N)=O [Compound No. 850, des(1)-Ac-[D-Tyr2,Hyp3,Thr5,Phe6Ψ(CH2CH2)Gly7,Arg(Me)9,Trp10]MS10] (Ac-[dY][Hyp]NT[X9]L[Arg(Me)]W-NH2)"
3,1.2,"CNC(=N)NCCC[C@H](NC(=O)[C@H](CC(C)C)NC(=O)CNC(=O)[C@H](Cc1ccccn1)NC(=O)[C@@H](NC(=O)[C@H](CC(N)=O)NC(=O)[C@@H]1C[C@@H](O)CN1C(=O)[C@@H](Cc1ccc(O)cc1)NC(C)=O)[C@@H](C)O)C(=O)N[C@@H](Cc1c[nH]c2ccccc12)C(N)=O [Compound No. 839, des(1)-Ac-[D-Tyr2,Hyp3,Thr5,Pya(2)6,Arg(Me)9,Trp10]MS10] (Ac-[dY][Hyp]NT[2Pal]GL[Arg(Me)]W-NH2)"
4,0.6,"CNC(=N)NCCC[C@H](NC(=O)[C@@H](/C=C/CNC(=O)[C@H](CC1CCCCC1)NC(=O)[C@@H](NC(=O)[C@H](CC(N)=O)NC(=O)[C@@H]1C[C@@H](O)CN1C(=O)[C@@H](Cc1ccc(O)cc1)NC(C)=O)[C@@H](C)O)CC(C)C)C(=O)N[C@@H](Cc1c[nH]c2ccccc12)C(N)=O [Compound No. 902, des(1)-Ac-[D-Tyr2,Hyp3,Thr5,Cha6,Gly7Ψ((E)CH═CH)Leu8,Arg(Me)9,Trp10]MS10] (Ac-[dY][Hyp]NT[Cha][Glyψ(E-CHCH)Leu][Arg(Me)]W-NH2)"
5,0.9,"CNC(=N)NCCC[C@H](NC(=O)[C@H](CC(C)C)NC(=O)CNC(=O)[C@H](Cc1cccnc1)NC(=O)[C@@H](NC(=O)[C@H](CC(N)=O)NC(=O)[C@@H]1C[C@@H](O)CN1C(=O)[C@@H](Cc1ccc(O)cc1)NC(C)=O)[C@@H](C)O)C(=O)N[C@@H](Cc1c[nH]c2ccccc12)C(N)=O [Compound No. 848, des(1)-Ac-[D-Tyr2,Hyp3,Thr5,Pya(3)6,Arg(Me)9,Trp10]MS10] (Ac-[dY][Hyp]NT[3Pal]GL[Arg(Me)]W-NH2)"
6,0.6,"CNC(=N)NCCC[C@H](NC(=O)[C@H](CC1CC1)NC(=O)CNC(=O)[C@H](CC1CCCCC1)NC(=O)[C@@H](NC(=O)[C@H](CC(N)=O)NC(=O)C(C)(C)NC(=O)[C@@H](Cc1ccc(O)cc1)NC(C)=O)[C@@H](C)O)C(=O)N[C@@H](Cc1c[nH]c2ccccc12)C(N)=O [Compound No. 912, des(1)-Ac-[D-Tyr2,Aib3,Thr5,Cha6,Ala(cPr)8,Arg(Me)9,Trp10]MS10] (Ac-[dY][Aib]NT[Cha]G[Ala(cPr)][Arg(Me)]W-NH2)"
7,0.7,"CNC(=N)NCCC[C@H](NC(=O)[C@H](CC(C)C)NC(=O)C/C=C/[C@H](Cc1ccccc1)NC(=O)[C@@H](NC(=O)[C@H](CC(N)=O)NC(=O)[C@@H]1C[C@@H](O)CN1C(=O)[C@@H](Cc1ccc(O)cc1)NC(C)=O)[C@@H](C)O)C(=O)N[C@@H](Cc1c[nH]c2ccccc12)C(N)=O [Compound No. 859, des(1)-Ac-[D-Tyr2,Hyp3,Thr5,Phe6Ψ((E)CH═CH)Gly7,Arg(Me)9,Trp10]MS10] (Ac-[dY][Hyp]NT[X7]L[Arg(Me)]W-NH2)"
